Test results taken from patent publication US8349215B2, “Corrosion inhibitors having increased biological degradability and minimized toxicity” (Clariant Finance (BVI) Limited, priority 2008, dated 2013).

Assays:
[1] = tested on: Skeletonema costatum; assay: Toxicity (EC50 Skeletonema costatum); assay type: cell-based
[2] = Biodegradability (OECD 306)

Q: Which results are given for CCCCCCCCN1CC(C(=O)O)CC1=O.NCCO (stereo not shown) [Compound from example 1, N-octyl-5-oxopyrrolidine-3-carboxylic acid monoethanolammonium salt]?
A: Toxicity EC50 [1]: >100 µg/mL; Biodegradability [2]: 85%

Q: Which results are given for CCCCCCCC/C=C\CCCCCCCCN1CC(C(=O)O)CC1=O.NCCO (stereo not shown) [Compound from example 5, N-oleyl-5-oxopyrrolidine-3-carboxylic acid monoethanolammonium salt]?
A: Toxicity EC50 [1]: >100 µg/mL; Biodegradability [2]: 78%
